Patent US20240116896A1 (ATAI Life Sciences AG, priority 2022, published 2024)

How the values were obtained:
Assay type in all cases: cell-based
5-HT2A [1] = biological target: T1, 5-HT2A (Homo sapiens, UniProt P28223); assay: Calcium mobilization (Ca++ flux) assay, agonist mode, 5-HT2A; settings: for 5-HT2A, Ca++ flux % activation @30 uM: relative to MAX serotonin control
Text: (§1) Calcium Mobilization Assay Method (Performed by DiscoveRx Eurofins)
(§2) The Calcium No-Wash^PLUS assay monitors the activation of a GPCR via Gq secondary messenger signaling in a live cell, non-imaging assay format. Calcium mobilization in PathHunter® cell lines or other cell lines stably expressing Gq-coupled GPCRs is monitored using a calcium-sensitive dye that is loaded into cells. GPCR activation by a compound results in the release of calcium from intracellular stores and an increase in dye fluorescence that is measured in real-time.
(§3) Cell lines expressing the GPCR of interest were expanded from freezer stocks according to standard procedures. Cells were seeded in a total volume of 20 μL into black-walled, clear-bottom, Poly-D-lysine coated 384-well microplates and incubated at 37° C. for the appropriate time prior to testing.
(§4) Assays were performed in 1× Dye Loading Buffer consisting of 1× Dye, 1× Additive A and 2.5 mM Probenecid in HBSS/20 mM Hepes. Probenicid was prepared fresh. Cells were loaded with dye prior to testing. Media was aspirated from cells and replaced with 20 μL Dye Loading Buffer. Cells were incubated for 30-60 minutes at 37° C.
(§5) For agonist determination, cells were incubated with sample to induce response. After dye loading, cells were removed from the incubator and 10 μL HBSS/20 mM Hepes was added. 3× vehicle was included in the buffer when performing agonist dose curves to define the EC80 for subsequent antagonist assays. Cells were incubated for 30 minutes at room temperature in the dark to equilibrate plate temperature.
(§6) Intermediate dilution of sample stocks was performed to generate 4× sample in assay buffer. Compound agonist activity was measured on a FLIPR Tetra (MDS). Calcium mobilization was monitored for 2 minutes and 10 μL 4× sample in HBSS/20 mM Hepes was added to the cells 5 seconds into the assay.
(§7) Compound activity data was analyzed using CBIS data analysis suite (ChemInnovation, CA). For agonist mode assays, percentage activity is calculated using the following formula:
(§8) % Activity=100%×(mean RFU of test sample−mean RFU of vehicle control)/(mean MAX RFU control ligand−mean RFU of vehicle control).
(§9) In these studies, the MAX RFU was generated by using 0.1 mM serotonin for the calcium mobilization assay.

5-HT2A [2] = biological target: T1, 5-HT2A; assay: PathHunter b-arrestin assay, agonist mode, 5-HT2A
Text: GPCR Arrestin Assay Methods
Arrestin Pathway (Performed by DiscoverX Eurofins)
The PathHunter® β-Arrestin assay monitors the activation of a GPCR in a homogenous, non-imaging assay format using a technology developed by DiscoverX called Enzyme Fragment Complementation (EFC) with β-galactosidase (β-Gal) as the functional reporter. […] EA is fused to β-Arrestin and PK is fused to the GPCR of interest.
When the GPCR is activated and β-Arrestin is recruited to the receptor, ED and EA complementation occurs, restoring β-Gal activity which is measured using chemiluminescent PathHunter® Detection Reagents.
PathHunter cell lines (DiscoveRx Eurofins) were expanded from freezer stocks according to standard procedures. Cells were seeded in a total volume of 20 μL into white walled, 384-well microplates and incubated at 37° C. for the appropriate time prior to testing. […]
b-Arrestin assay signal was generated through a single addition of 12.5 or 15 μL (50% v/v) of PathHunter Detection reagent cocktail, followed by a one-hour incubation at room temperature. Microplates were read following signal generation with a PerkinElmer Envision™ instrument for chemiluminescent signal detection.
Compound activity was analyzed using CBIS data analysis suite (ChemInnovation, CA). For agonist mode assays, percentage activity was calculated using the following formula: […]

5-HT2C = biological target: T2, 5-HT2C (Homo sapiens, UniProt P28335); assay: Calcium mobilization (Ca++ flux) assay, agonist mode, 5-HT2C
T2 sequence (P28335 33-458): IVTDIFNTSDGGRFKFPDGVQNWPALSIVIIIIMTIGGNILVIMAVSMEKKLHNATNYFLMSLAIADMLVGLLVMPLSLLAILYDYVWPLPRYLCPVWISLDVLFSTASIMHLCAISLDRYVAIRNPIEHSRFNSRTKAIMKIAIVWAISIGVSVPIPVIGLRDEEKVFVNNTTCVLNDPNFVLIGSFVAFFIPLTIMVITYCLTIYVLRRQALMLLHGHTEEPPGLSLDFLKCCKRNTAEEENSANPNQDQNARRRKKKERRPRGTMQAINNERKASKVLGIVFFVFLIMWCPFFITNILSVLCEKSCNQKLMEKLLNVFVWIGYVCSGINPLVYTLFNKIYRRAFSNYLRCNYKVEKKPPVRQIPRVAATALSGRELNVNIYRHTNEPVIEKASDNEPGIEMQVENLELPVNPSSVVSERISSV
Text: as §1, §2
as §3, with “testing. […]” for “testing.”
as §6
Compound activity data was analyzed using CBIS data analysis suite (ChemInnovation, CA). For agonist mode assays, percentage activity is calculated using the following formula: […]

5-HT2B [3] = biological target: T3, 5-HT2B (Homo sapiens, UniProt P41595); assay: Calcium mobilization (Ca++ flux) assay, agonist mode, 5-HT2B; settings: for 5-HT2B, Ca++ flux % activation @30 uM: relative to MAX serotonin control; for EC50: agonist mode
T3 sequence (P41595 whole entry): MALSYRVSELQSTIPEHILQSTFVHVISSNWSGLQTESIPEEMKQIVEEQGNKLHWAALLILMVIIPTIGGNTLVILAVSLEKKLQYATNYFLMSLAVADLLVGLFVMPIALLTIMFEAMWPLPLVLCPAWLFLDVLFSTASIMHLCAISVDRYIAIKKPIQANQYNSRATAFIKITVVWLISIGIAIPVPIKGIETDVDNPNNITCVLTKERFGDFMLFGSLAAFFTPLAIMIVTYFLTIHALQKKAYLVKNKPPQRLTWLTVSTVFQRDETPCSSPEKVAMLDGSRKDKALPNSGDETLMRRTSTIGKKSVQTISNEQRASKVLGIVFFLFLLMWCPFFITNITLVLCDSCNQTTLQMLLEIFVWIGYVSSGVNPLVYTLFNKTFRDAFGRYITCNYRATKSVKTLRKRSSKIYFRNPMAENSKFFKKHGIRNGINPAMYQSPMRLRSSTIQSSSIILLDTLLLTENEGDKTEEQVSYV
Text: as §1, §2, §3, §4, §5, §6, §7, §8, §9

5-HT2A [4] = biological target: T1, 5-HT2A; assay: IPOne (IP1 HTRF) assay, CHO-K1 cells expressing human 5-HT2A; parameters: expressed in transfected cells; host or cells: CHO-K1; settings: CHO-K1, percentage of reference agonist α-Me-5-HT at its EC100
Description: (§10) IPOne assays were performed using stably-transfected cell lines (CHO-K1) expressing human 5-HT2A or 5-HT2B receptors. Upon activation of these receptors, Gq-mediated myo-Inositol 1 phosphate (IP1) production is detected by a Homogeneous Time-Resolved Fluorescence (HTRF) competitive immunoassay, whereby an IP1 analog coupled to a fluorophore (acceptor) competes with endogenous IP1 for binding to a labeled anti-IP1 antibody (donor). The resulting signal is inversely proportional to the concentration of IP1 in the sample. Cells were incubated with an IP1 inhibitor (to prevent degradation and allow detection) and either reference compound or test compound. α-Me-5-HT was used as the assay reference agonist. Activation of 5-HT2A or 5-HT2B receptors was measured via accumulation of IP1 detected by HTRF. Agonist activity of test compounds was expressed as a percentage of the activity of the reference agonist at its EC100 concentration.

5-HT2B [5] = biological target: T3, 5-HT2B; assay: IPOne (IP1 HTRF) assay, CHO-K1 cells expressing human 5-HT2B; parameters: expressed in transfected cells; host or cells: CHO-K1; settings: CHO-K1, percentage of reference agonist α-Me-5-HT at its EC100
Description: as §10

T1 sequence (P28223 whole entry): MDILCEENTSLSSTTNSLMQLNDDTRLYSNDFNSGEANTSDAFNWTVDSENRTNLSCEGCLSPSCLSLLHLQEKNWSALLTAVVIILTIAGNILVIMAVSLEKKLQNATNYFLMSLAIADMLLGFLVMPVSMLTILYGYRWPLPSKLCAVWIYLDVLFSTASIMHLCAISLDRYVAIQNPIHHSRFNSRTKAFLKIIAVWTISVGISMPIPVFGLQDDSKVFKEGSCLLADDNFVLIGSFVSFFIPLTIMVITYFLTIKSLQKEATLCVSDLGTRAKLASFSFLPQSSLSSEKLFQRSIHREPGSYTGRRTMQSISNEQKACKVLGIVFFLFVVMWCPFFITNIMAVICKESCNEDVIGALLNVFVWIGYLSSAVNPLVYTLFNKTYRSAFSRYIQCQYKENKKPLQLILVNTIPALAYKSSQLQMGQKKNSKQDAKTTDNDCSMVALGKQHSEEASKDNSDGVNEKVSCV

Q: `OCC1CCCN1CCc1c[nH]c2ccccc12` (centres unmarked) [Compound 3, (1-(2-(1H-indol-3-yl)ethyl)pyrrolidin-2-yl)methanol] was tested. Which EC50 (5-HT2A [1]) did it give?
A: 0.103 µM

Q: What about the “5-HT2A, Ca++ flux % activation @30 uM” value (5-HT2A [1]) of the same compound?
A: 94.73%

Q: And the EC50 (5-HT2A [2])?
A: 1.15 µM

Q: What about the EC50 (5-HT2C) of the same compound?
A: 0.498 µM

Q: And the “5-HT2B, Ca++ flux % activation @30 uM” value (5-HT2B [3])?
A: 23.51%

Q: What about the EC50 (5-HT2B [3]) of the same compound?
A: > 30 µM

Q: And the activation at 0.3 µM (5-HT2A [4])?
A: 47.9%

Q: What about the activation at 30 µM (5-HT2A [4]) of the same compound?
A: 97.5%

Q: What about the activation at 0.3 µM (5-HT2B [5]) of the same compound?
A: 25.9%

Q: What about the activation at 30 µM (5-HT2B [5]) of the same compound?
A: 93.9%

Q: Which EC50 (5-HT2A [1]) does the source give for `O=C(O)C1CCCN1CCc1c[nH]c2ccccc12` (centres unmarked) [Compound 2, (2-(1H-indol-3-yl)ethyl)proline] here?
A: > 30 µM

Q: What about the “5-HT2A, Ca++ flux % activation @30 uM” value (5-HT2A [1]) of the same compound?
A: 2.41%

Q: With `COC(=O)C1CCCN1CCc1c[nH]c2ccccc12` (centres unmarked) [Compound 1, methyl (2-(1H-indol-3-yl)ethyl)prolinate] as the compound, how does the EC50 (5-HT2A [1]) read?
A: 0.987 µM

Q: And the “5-HT2A, Ca++ flux % activation @30 uM” value (5-HT2A [1])?
A: 78.24%

Q: And the EC50 (5-HT2A [2])?
A: 16.1 µM

Q: What about the EC50 (5-HT2C) of the same compound?
A: 4.16 µM

Q: What about the “5-HT2B, Ca++ flux % activation @30 uM” value (5-HT2B [3]) of the same compound?
A: 11.15%

Q: What about the EC50 (5-HT2B [3]) of the same compound?
A: > 30 µM

Q: How did the EC50 (5-HT2A [1]) turn out when `CN(CCc1c[nH]c2ccccc12)CC(=O)O` [Compound 5, N-(2-(1H-indol-3-yl)ethyl)-N-methylglycine] was run?
A: > 30 µM

Q: What about the “5-HT2A, Ca++ flux % activation @30 uM” value (5-HT2A [1]) of the same compound?
A: 24.51%

Q: For `COC(=O)CN(C)CCc1c[nH]c2ccccc12` [Compound 4, methyl N-(2-(1H-indol-3-yl)ethyl)-N-methylglycinate], which EC50 (5-HT2A [1]) is on record?
A: 0.302 µM

Q: What about the “5-HT2A, Ca++ flux % activation @30 uM” value (5-HT2A [1]) of the same compound?
A: 36.92%

Q: For `CN(CCO)CCc1c[nH]c2ccccc12` [Compound 6, 2-((2-(1H-indol-3-yl)ethyl)(methyl)amino)ethan-1-ol], which EC50 (5-HT2A [1]) is on record?
A: 0.101 µM

Q: What about the “5-HT2A, Ca++ flux % activation @30 uM” value (5-HT2A [1]) of the same compound?
A: 42.83%

Q: Which results are given for `COc1ccc2[nH]c(Br)c(CCN3CCCC3CO)c2c1` (centres unmarked) [Compound 72, (1-(2-(2-bromo-5-methoxy-1H-indol-3-yl)ethyl)pyrrolidin-2-yl)methanol]?
A: activation at 0.3 µM (5-HT2A [4]): 5.63%; activation at 30 µM (5-HT2A [4]): 37.6%; activation at 0.3 µM (5-HT2B [5]): 13.5%; activation at 30 µM (5-HT2B [5]): 41.7%

Q: `OC[C@@H]1CCCN1CCc1c(Br)[nH]c2ccccc12` [Compound 57, (S)-(1-(2-(2-bromo-1H-indol-3-yl)ethyl)pyrrolidin-2-yl)methanol] was tested. Which activation at 0.3 µM (5-HT2A [4]) did it give?
A: 4.69%

Q: And the activation at 30 µM (5-HT2A [4])?
A: 30.9%

Q: What about the activation at 0.3 µM (5-HT2B [5]) of the same compound?
A: -1.03%

Q: What about the activation at 30 µM (5-HT2B [5]) of the same compound?
A: 73%
